Among the data in the supplement of paper PMC10307832 are relative viability values, retold here.

What all share (experiment): relative viability (nuclei count vs DMSO), 5 days (fraction); higher = more cells survive
Compound in assay [1]: C[As](C)SC[C@H](NC(=O)CC[C@H](N)C(=O)O)C(=O)NCC(=O)O [Darinaparsin] + Cc1cc(Nc2cc(N3CCN(C)CC3)nc(Sc3ccc(NC(=O)C4CC4)cc3)n2)n[nH]1 [Tozasertib] (partner 0.1 µM)
Summed up:
(§1)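 Nuclei were stained with Hoechst during a one-step fixation (final 0.05% Triton X-100, 1% formaldehyde, 1 ug/ml Hoechst) carried out 5 days after dosing, then counted on 4× images. The cells, lung cancer lines in 1536-well plates, had been dosed by pin tool the day after seeding with one drug alone or a fixed anchor-drug dose plus five library-drug doses (not always all listed) in √10 steps. Relative viability is the nuclei count in treated wells divided by that in vehicle wells, and each value is the median of duplicate plates.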

Compound in the assay “QS11 + Foretinib”: C1CC2=C(C1)C=C(C=C2)OC3=NC(=C4C(=N3)N(C=N4)CC5=CC=C(C=C5)C6=CC=CC=C6)N[C@@H](CC7=CC=CC=C7)CO [QS11] + COc1cc2c(Oc3ccc(NC(=O)C4(C(=O)Nc5ccc(F)cc5)CC4)cc3F)ccnc2cc1OCCCN1CCOCC1 [Foretinib] (partner 0.25 µM)
Summed up: as §1

Compound in assay [2]: C[As](C)SC[C@H](NC(=O)CC[C@H](N)C(=O)O)C(=O)NCC(=O)O [Darinaparsin] + C[C@]1(O)C[C@@H](c2nc(-c3ccc4ccc(-c5ccccc5)nc4c3)c3c(N)nccn32)C1 [Linsitinib] (partner 1 µM)
Summed up: as §1

Compound in the assay “QS11 + Linsitinib”: C1CC2=C(C1)C=C(C=C2)OC3=NC(=C4C(=N3)N(C=N4)CC5=CC=C(C=C5)C6=CC=CC=C6)N[C@@H](CC7=CC=CC=C7)CO [QS11] + C[C@]1(O)C[C@@H](c2nc(-c3ccc4ccc(-c5ccccc5)nc4c3)c3c(N)nccn32)C1 [Linsitinib] (partner 1 µM)
Summed up: as §1

On to NCI-H3122, for which the relative viability in assay [1] (first compound 0.08 µM) was 0.446; in assay [1] (first compound 0.8 µM), 0.41; in assay [1] (first compound 2.53 µM) it was 0.377; in assay [1] (first compound 8 µM), 0.417; in the assay with QS11 + Foretinib (first compound 0.08 µM) it was 0.979; with QS11 + Foretinib (first compound 0.253 µM) it was 1.08. The relative viability with QS11 + Foretinib (first compound 2.53 µM) was 1.05; in the assay with QS11 + Foretinib (first compound 8 µM), 0.749; in assay [2] (first compound 0.08 µM), 1.1; in assay [2] (first compound 0.8 µM) it was 1.08; in assay [2] (first compound 2.53 µM), 1.08; in assay [2] (first compound 8 µM) it was 1.03. Further, the relative viability in the assay with QS11 + Linsitinib (first compound 0.08 µM) amounted to 1; with QS11 + Linsitinib (first compound 0.253 µM), 1.17; with QS11 + Linsitinib (first compound 0.8 µM) it was 0.919; with QS11 + Linsitinib (first compound 2.53 µM), 1.17; with QS11 + Linsitinib (first compound 8 µM) it was 0.842.
PC-3 [JPC-3]: the relative viability in assay [1] (first compound 0.08 µM) turned out to be 1.08; in assay [1] (first compound 0.8 µM), 0.996; in assay [1] (first compound 2.53 µM), 0.739; in assay [1] (first compound 8 µM), 1.1; with QS11 + Foretinib (first compound 0.08 µM), 0.972; with QS11 + Foretinib (first compound 0.253 µM), 1.07. For the same cell line, the relative viability with QS11 + Foretinib (first compound 0.8 µM) is 0.991; with QS11 + Foretinib (first compound 2.53 µM), 1.03; in the assay with QS11 + Foretinib (first compound 8 µM), 0.982; in assay [2] (first compound 0.08 µM), 0.961; in assay [2] (first compound 0.8 µM) it was 0.955; in assay [2] (first compound 2.53 µM), 1.06. In addition, the relative viability was found to be 1.05 in assay [2] (first compound 8 µM); 0.939 with QS11 + Linsitinib (first compound 0.08 µM); 0.978 in the assay with QS11 + Linsitinib (first compound 0.253 µM); 0.964 with QS11 + Linsitinib (first compound 0.8 µM); 0.947 with QS11 + Linsitinib (first compound 2.53 µM); 0.97 in the assay with QS11 + Linsitinib (first compound 8 µM).
Regarding PC-14, the relative viability came to 0.707 in assay [1] (first compound 0.08 µM); 0.479 in assay [1] (first compound 0.8 µM); 0.768 in assay [1] (first compound 2.53 µM); 0.577 in assay [1] (first compound 8 µM); 1.11 with QS11 + Foretinib (first compound 0.08 µM); 0.95 with QS11 + Foretinib (first compound 0.253 µM). Further, the relative viability with QS11 + Foretinib (first compound 0.8 µM) was found to be 0.777; with QS11 + Foretinib (first compound 2.53 µM) it was 0.889; with QS11 + Foretinib (first compound 8 µM), 1.06; in assay [2] (first compound 0.08 µM), 1.04; in assay [2] (first compound 0.8 µM), 0.94; in assay [2] (first compound 2.53 µM), 0.896. Further, the relative viability is 1.09 in assay [2] (first compound 8 µM); 1.04 with QS11 + Linsitinib (first compound 0.08 µM); 1.08 with QS11 + Linsitinib (first compound 0.253 µM); 0.758 with QS11 + Linsitinib (first compound 0.8 µM); 0.906 with QS11 + Linsitinib (first compound 2.53 µM); 0.901 with QS11 + Linsitinib (first compound 8 µM).
With RERF-LC-KJ, the relative viability in assay [1] (first compound 0.08 µM) amounted to 0.482; in assay [1] (first compound 0.8 µM), 0.483; in assay [1] (first compound 2.53 µM), 0.447; in assay [1] (first compound 8 µM) it was 0.472; in the assay with QS11 + Foretinib (first compound 0.08 µM), 0.883; in the assay with QS11 + Foretinib (first compound 0.253 µM), 0.86. Besides, the relative viability stood at 0.62 with QS11 + Foretinib (first compound 0.8 µM); 0.79 with QS11 + Foretinib (first compound 2.53 µM); 0.834 with QS11 + Foretinib (first compound 8 µM); 1.03 in assay [2] (first compound 0.08 µM); 0.979 in assay [2] (first compound 0.8 µM); 0.876 in assay [2] (first compound 2.53 µM). For the same cell line, the relative viability in assay [2] (first compound 8 µM) was determined as 0.946; in the assay with QS11 + Linsitinib (first compound 0.08 µM), 0.933; with QS11 + Linsitinib (first compound 0.253 µM) it was 0.929; with QS11 + Linsitinib (first compound 0.8 µM) it was 0.854; with QS11 + Linsitinib (first compound 2.53 µM), 0.868; with QS11 + Linsitinib (first compound 8 µM), 0.782.
Regarding SK-LU-1, the relative viability stood at 0.402 in assay [1] (first compound 0.08 µM); 0.278 in assay [1] (first compound 0.8 µM); 0.294 in assay [1] (first compound 2.53 µM); 0.316 in assay [1] (first compound 8 µM); 0.782 in the assay with QS11 + Foretinib (first compound 0.08 µM); 0.874 with QS11 + Foretinib (first compound 0.253 µM). The relative viability amounted to 0.68 with QS11 + Foretinib (first compound 0.8 µM); 0.784 with QS11 + Foretinib (first compound 2.53 µM); 0.641 with QS11 + Foretinib (first compound 8 µM); 1.35 in assay [2] (first compound 0.08 µM); 0.976 in assay [2] (first compound 0.8 µM); 1.07 in assay [2] (first compound 2.53 µM). Moreover, the relative viability amounted to 1.35 in assay [2] (first compound 8 µM); 1.1 with QS11 + Linsitinib (first compound 0.08 µM); 1.08 with QS11 + Linsitinib (first compound 0.253 µM); 0.989 with QS11 + Linsitinib (first compound 0.8 µM); 0.71 with QS11 + Linsitinib (first compound 2.53 µM); 0.732 with QS11 + Linsitinib (first compound 8 µM).
As to SK-MES-1, the relative viability in assay [1] (first compound 0.08 µM) came out at 1.08; in assay [1] (first compound 0.8 µM), 0.854; in assay [1] (first compound 2.53 µM), 0.74; in assay [1] (first compound 8 µM), 0.968; with QS11 + Foretinib (first compound 0.08 µM), 0.985; in the assay with QS11 + Foretinib (first compound 0.253 µM), 0.783. Moreover, the relative viability with QS11 + Foretinib (first compound 0.8 µM) turned out to be 0.918; in the assay with QS11 + Foretinib (first compound 2.53 µM), 0.605; with QS11 + Foretinib (first compound 8 µM), 0.778; in assay [2] (first compound 0.08 µM) it was 1.15; in assay [2] (first compound 0.8 µM), 0.99; in assay [2] (first compound 2.53 µM), 0.812. Besides, the relative viability came to 1.25 in assay [2] (first compound 8 µM); 1.13 in the assay with QS11 + Linsitinib (first compound 0.08 µM); 1.08 in the assay with QS11 + Linsitinib (first compound 0.253 µM); 0.959 with QS11 + Linsitinib (first compound 0.8 µM); 1.03 with QS11 + Linsitinib (first compound 2.53 µM); 1.05 with QS11 + Linsitinib (first compound 8 µM).
In the case of SW 1573, the relative viability in assay [1] (first compound 0.08 µM) stood at 0.145; in assay [1] (first compound 0.8 µM) it was 0.2; in assay [1] (first compound 2.53 µM) it was 0.197; in assay [1] (first compound 8 µM) it was 0.14; with QS11 + Foretinib (first compound 0.08 µM) it was 0.862; with QS11 + Foretinib (first compound 0.253 µM), 0.926. The relative viability with QS11 + Foretinib (first compound 0.8 µM) came out at 1.02; with QS11 + Foretinib (first compound 2.53 µM), 0.853; with QS11 + Foretinib (first compound 8 µM), 1.07; in assay [2] (first compound 0.08 µM) it was 0.935; in assay [2] (first compound 0.8 µM), 0.811; in assay [2] (first compound 2.53 µM) it was 0.874. Also, the relative viability in assay [2] (first compound 8 µM) worked out at 0.906; with QS11 + Linsitinib (first compound 0.08 µM), 0.837; in the assay with QS11 + Linsitinib (first compound 0.253 µM) it was 0.729; in the assay with QS11 + Linsitinib (first compound 0.8 µM) it was 0.824; with QS11 + Linsitinib (first compound 2.53 µM) it was 0.817; in the assay with QS11 + Linsitinib (first compound 8 µM), 0.696.
Regarding UMC-11, the relative viability in assay [1] (first compound 0.08 µM) came to 0.215; in assay [1] (first compound 0.8 µM) it was 0.211; in assay [1] (first compound 2.53 µM) it was 0.211; in assay [1] (first compound 8 µM), 0.188; in the assay with QS11 + Foretinib (first compound 0.08 µM), 1.13; in the assay with QS11 + Foretinib (first compound 0.253 µM) it was 1.1. Moreover, the relative viability amounted to 1.07 in the assay with QS11 + Foretinib (first compound 0.8 µM); 1.32 with QS11 + Foretinib (first compound 2.53 µM); 1.06 with QS11 + Foretinib (first compound 8 µM); 1.04 in assay [2] (first compound 0.08 µM); 1.07 in assay [2] (first compound 0.8 µM); 0.862 in assay [2] (first compound 2.53 µM). Moreover, the relative viability in assay [2] (first compound 8 µM) was determined as 1.32; with QS11 + Linsitinib (first compound 0.08 µM), 1.06; with QS11 + Linsitinib (first compound 0.253 µM), 1.16; with QS11 + Linsitinib (first compound 0.8 µM), 1.08; in the assay with QS11 + Linsitinib (first compound 2.53 µM), 1.17; in the assay with QS11 + Linsitinib (first compound 8 µM), 1.24.
